These results are taken from PubChem BioAssay AID1918944 (Molecular Pharmacology Branch, DTP, NCI, 2023).

For this experiment, the system named is 786-0 complex spheroid viability. Briefly: Anticancer human tumor 786-0 cell line growth inhibition.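 On all read-outs here: spheroids exposed to agents for seven days before readout.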 Particulars: for viability, T/C: stronger effect = lower value. The procedure, abridged:
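Multicellular complex spheroids of tumor cells with human endothelial cells (HUVEC) and mesenchymal stem cells; the LSD1 inhibitor iadademstat was combined with standard-of-care or investigational agents. Top concentration at or near clinical Cmax, half-log dilutions; final DMSO ≤0.25%.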

Where [1] appears, read: curve of first compound, second compound 0.1 µM.
[2] abbreviates: curve of first compound, second compound 0.316 µM.
The mark [3] stands for this setting: curve of first compound, second compound 1 µM.
The mark [4] stands for this setting: curve of first compound, second compound 3.16 µM.
The mark [5] stands for this setting: curve of first compound, second compound 10 µM.
Where [6] appears, read: second compound 0.1 µM, first compound 0.00949 µM.
The mark [7] stands for this setting: second compound 0.1 µM, first compound 0.03 µM.
[8] abbreviates: second compound 0.1 µM, first compound 0.0949 µM.
The mark [9] stands for this setting: second compound 0.1 µM, first compound 0.3 µM.
[10] abbreviates: second compound 0.316 µM, first compound 0.00949 µM.
[11] abbreviates: second compound 0.316 µM, first compound 0.03 µM.
Setting [12] is: second compound 0.316 µM, first compound 0.0949 µM.
[13] abbreviates: second compound 0.316 µM, first compound 0.3 µM.
Where [14] appears, read: second compound 1 µM, first compound 0.00949 µM.
The mark [15] stands for this setting: second compound 1 µM, first compound 0.03 µM.
Setting [16] is: second compound 1 µM, first compound 0.0949 µM.
[17] abbreviates: second compound 1 µM, first compound 0.3 µM.
Where [18] appears, read: second compound 3.16 µM, first compound 0.00949 µM.
Setting [19] is: second compound 3.16 µM, first compound 0.03 µM.
Setting [20] is: second compound 3.16 µM, first compound 0.0949 µM.
[21] abbreviates: second compound 3.16 µM, first compound 0.3 µM.
Setting [22] is: second compound 10 µM, first compound 0.00949 µM.
Where [23] appears, read: second compound 10 µM, first compound 0.03 µM.
Setting [24] is: second compound 10 µM, first compound 0.0949 µM.
Setting [25] is: second compound 10 µM, first compound 0.3 µM.

Usually IC50 stands for the concentration at which inhibition is half-maximal. As usually defined, the viability, T/C is the result in the treated group divided by that in the control group, in per cent.

SMILES strings stand for the structures. “And” between values parts separate entries of the source, which are not always exact repeats. Equal values may be shown once.

On to `CCN(c1cc(-c2ccc(CN3CCOCC3)cc2)cc(C(=O)NCc2c(C)cc(C)[nH]c2=O)c1C)C1CCOCC1` + NC1CC1c1ccc(-c2cccc(O)c2)cc1, for which the half-maximal inhibitory concentration (IC50) was more than 3000 nM under setting [1]; more than 3000 nM under setting [2]; more than 3000 nM under setting [3]; more than 3000 nM under setting [4]; more than 3000 nM under setting [5]. For the same compound, the viability, T/C was 99.5% under setting [6]; 101% under setting [7]; 98.7% under setting [8]; 94.3% under setting [9]; 95.7% (second compound 0.1 µM, first compound 0.949 µM); 96.2% (second compound 0.1 µM, first compound 3 µM). Besides, the viability, T/C was 104% under setting [10]; 105% under setting [11]; 107% under setting [12]; 103% under setting [13]; 97.6% (second compound 0.316 µM, first compound 0.949 µM); 94.8% (second compound 0.316 µM, first compound 3 µM). In addition, the viability, T/C is 98.8% under setting [14]; 101% under setting [15]; 99.3% under setting [16]; 102% under setting [17]; 84.8% (second compound 1 µM, first compound 0.949 µM); 86% (second compound 1 µM, first compound 3 µM). The viability, T/C was 88.6% under setting [18]; 97.7% under setting [19]; 95.3% under setting [20]; 96.8% under setting [21]; 84.4% (second compound 3.16 µM, first compound 0.949 µM); 86.3% (second compound 3.16 µM, first compound 3 µM). Also, the viability, T/C runs as follows: under setting [22], 87.8%; under setting [23], 87%; under setting [24], 85.5%; under setting [25], 87.3%; (second compound 10 µM, first compound 0.949 µM) 80.4%; (second compound 10 µM, first compound 3 µM) 83%.

As to `CC1COCCN1c1cc(C2(S(C)(=N)=O)CC2)nc(-c2ccnc3[nH]ccc23)n1` (stereo not given) + NC1CC1c1ccc(-c2cccc(O)c2)cc1, the IC50 came to 943 nM under setting [1]; 1020 nM under setting [2]; 933 nM under setting [3]; 819 nM under setting [4]; 751 nM under setting [5]. Further, the viability, T/C (second compound 0.1 µM, first compound 0.0316 µM) was 99.5%; the viability, T/C (second compound 0.1 µM, first compound 0.1 µM) is 107%; the viability, T/C (second compound 0.1 µM, first compound 0.316 µM) is 89.1%; the viability, T/C (second compound 0.1 µM, first compound 1 µM) is 47.4%; the viability, T/C (second compound 0.1 µM, first compound 3.16 µM) was 22.8%; the viability, T/C (second compound 0.1 µM, first compound 10 µM) is 14.4%. Moreover, the viability, T/C is 114% (second compound 0.316 µM, first compound 0.0316 µM); 110% (second compound 0.316 µM, first compound 0.1 µM); 98.8% (second compound 0.316 µM, first compound 0.316 µM); 49.7% (second compound 0.316 µM, first compound 1 µM); 22.7% (second compound 0.316 µM, first compound 3.16 µM); 14.8% (second compound 0.316 µM, first compound 10 µM). Further, the viability, T/C is 101% (second compound 1 µM, first compound 0.0316 µM); 102% (second compound 1 µM, first compound 0.1 µM); 88% (second compound 1 µM, first compound 0.316 µM); 46.4% (second compound 1 µM, first compound 1 µM); 22.9% (second compound 1 µM, first compound 3.16 µM); 12.8% (second compound 1 µM, first compound 10 µM). Besides, the viability, T/C (second compound 3.16 µM, first compound 0.0316 µM) was 94.5%; the viability, T/C (second compound 3.16 µM, first compound 0.1 µM) is 101%; the viability, T/C (second compound 3.16 µM, first compound 0.316 µM) is 86%; the viability, T/C (second compound 3.16 µM, first compound 1 µM) was 41.8%; the viability, T/C (second compound 3.16 µM, first compound 3.16 µM) was 22.9%; the viability, T/C (second compound 3.16 µM, first compound 10 µM) was 14.6%. Also, the viability, T/C was 99% (second compound 10 µM, first compound 0.0316 µM); 95.2% (second compound 10 µM, first compound 0.1 µM); 81.3% (second compound 10 µM, first compound 0.316 µM); 38.1% (second compound 10 µM, first compound 1 µM); 25.6% (second compound 10 µM, first compound 3.16 µM); 13.4% (second compound 10 µM, first compound 10 µM).

In the case of `O=C(C=Cn1cnc(-c2cc(C(F)(F)F)cc(C(F)(F)F)c2)n1)NNc1cnccn1`, the viability, T/C is 90.7% and 92.3% (compound 0.00316 µM); 61.1% and 63.3% (compound 0.01 µM); 39.5% and 47.2% (compound 0.0316 µM); 29% and 39.9% (compound 0.1 µM); 20.6% and 32.5% (compound 0.316 µM); 15.3% and 25.6% (compound 1 µM). Further, the IC50 (curve of compound) was 18.5 nM and 27.6 nM.

`O=C(c1cc(Cc2n[nH]c(=O)c3ccccc23)ccc1F)N1CCN(C(=O)C2CC2)CC1`: the viability, T/C runs as follows: (compound 0.0316 µM) 103%; (compound 0.1 µM) 103%; (compound 0.316 µM) 104% and 103%; (compound 1 µM) 96.8% and 102%; (compound 3.16 µM) 85% and 97%; (compound 10 µM) 61.8% and 74.5%. Further, the IC50 (curve of compound) was more than 10000 nM.

Take `NC1CCC(NC2CC2c2ccccc2)CC1` (stereo not given): the viability, T/C by setting is: (compound 0.1 µM) 114% [middle of 25 runs]; (compound 0.316 µM) 113% and 132%; (compound 1 µM) 112% [middle of 25 runs]; (compound 3.16 µM) 106% [middle of 25 runs]; (compound 10 µM) 85.4% [middle of 23 runs]. Moreover, for the setting “compound alone, run of 11/29/2021”, the 50% inhibitory concentration (IC50) is more than 10000 nM.

Regarding `Nc1ncn(C2CC(O)C(CO)S2)c(=O)n1` (stereo not given) + NC1CC1c1ccc(-c2cccc(O)c2)cc1, the IC50 was 216 nM under setting [1]; more than 300 nM under setting [2]; 255 nM under setting [3]; 251 nM under setting [4]; more than 300 nM under setting [5]. Further, the viability, T/C (second compound 0.1 µM, first compound 0.000949 µM) was 117%; the viability, T/C (second compound 0.1 µM, first compound 0.003 µM) is 114%; the viability, T/C under setting [6] is 113%; the viability, T/C under setting [7] is 99%; the viability, T/C under setting [8] is 81.5%; the viability, T/C under setting [9] is 37.6%. Moreover, the viability, T/C reads like this: (second compound 0.316 µM, first compound 0.000949 µM) 116%; (second compound 0.316 µM, first compound 0.003 µM) 121%; under setting [10], 112%; under setting [11], 106%; under setting [12], 86.8%; under setting [13], 51%. The viability, T/C reads like this: (second compound 1 µM, first compound 0.000949 µM) 121%; (second compound 1 µM, first compound 0.003 µM) 110%; under setting [14], 110%; under setting [15], 100%; under setting [16], 83.2%; under setting [17], 44%. Further, the viability, T/C is, setting by setting: (second compound 3.16 µM, first compound 0.000949 µM) 111%; (second compound 3.16 µM, first compound 0.003 µM) 109%; under setting [18], 102%; under setting [19], 102%; under setting [20], 79.3%; under setting [21], 44.2%. For the same compound, the viability, T/C reads like this: (second compound 10 µM, first compound 0.000949 µM) 93.3%; (second compound 10 µM, first compound 0.003 µM) 100%; under setting [22], 95.1%; under setting [23], 95.2%; under setting [24], 81.3%; under setting [25], 53.9%.
